Source: PubChem BioAssay (NCI)
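How tested: cells in 96-well plates exposed to compound for 48 hours at five concentrations. TGI is the concentration that stops growth completely.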

Key:
Experiment in all cases: inhibition of tumour cell growth, NCI panel, 48 h
EKVX NSCLC = system: EKVX NSCLC
NCI-H460 lung = system: NCI-H460 lung
DU-145 prostate = system: DU-145 prostate
SK-MEL-5 melanoma = system: SK-MEL-5 melanoma
LOX IMVI melanoma = system: LOX IMVI melanoma
NCI-H226 lung = system: NCI-H226 lung
KM12 colon = system: KM12 colon
HL-60(TB) leukemia = system: HL-60(TB) leukemia
SK-OV-3 ovarian = system: SK-OV-3 ovarian
ACHN renal = system: ACHN renal
IGROV1 ovarian = system: IGROV1 ovarian
UACC-257 melanoma = system: UACC-257 melanoma
786-0 renal = system: 786-0 renal
HT29 colon = system: HT29 colon
SK-MEL-28 melanoma = system: SK-MEL-28 melanoma
OVCAR-4 ovarian = system: OVCAR-4 ovarian
NCI/ADR-RES ovarian = system: NCI/ADR-RES ovarian
T-47D breast = system: T-47D breast
HCC-2998 colon = system: HCC-2998 colon
HCT-116 colon = system: HCT-116 colon
SF-539 CNS = system: SF-539 CNS
K-562 leukemia = system: K-562 leukemia
OVCAR-3 ovarian = system: OVCAR-3 ovarian
NCI-H522 lung = system: NCI-H522 lung
MCF7 breast = system: MCF7 breast
MOLT-4 leukemia = system: MOLT-4 leukemia
HOP-62 NSCLC = system: HOP-62 NSCLC
HCT-15 colon = system: HCT-15 colon
RXF 393 renal = system: RXF 393 renal
OVCAR-8 ovarian = system: OVCAR-8 ovarian
CAKI-1 renal = system: CAKI-1 renal
MDA-N = system: MDA-N
NCI-H23 lung = system: NCI-H23 lung
RPMI-8226 leukemia = system: RPMI-8226 leukemia
SK-MEL-2 melanoma = system: SK-MEL-2 melanoma
U251 CNS = system: U251 CNS
SR leukemia = system: SR leukemia
UO-31 renal = system: UO-31 renal
PC-3 prostate = system: PC-3 prostate
A498 renal = system: A498 renal
M14 melanoma = system: M14 melanoma
MDA-MB-435 = system: MDA-MB-435
MDA-MB-231 breast = system: MDA-MB-231 breast
HOP-92 NSCLC = system: HOP-92 NSCLC
CCRF-CEM leukemia = system: CCRF-CEM leukemia
TK-10 renal = system: TK-10 renal
SF-268 CNS = system: SF-268 CNS
SW-620 colon = system: SW-620 colon
OVCAR-5 ovarian = system: OVCAR-5 ovarian
SF-295 CNS = system: SF-295 CNS
HS 578T breast = system: HS 578T breast
MALME-3M melanoma = system: MALME-3M melanoma
SNB-19 CNS = system: SNB-19 CNS
COLO 205 colon = system: COLO 205 colon
BT-549 breast = system: BT-549 breast
UACC-62 melanoma = system: UACC-62 melanoma
SN12C renal = system: SN12C renal
A549 NSCLC = system: A549 NSCLC
SNB-75 CNS = system: SNB-75 CNS

Structure (SMILES): O=C1/C(=C/c2ccc(Cl)cc2)N=C(c2ccccc2)N1C1Nc2cc3c(cc2S1)NC(N1C(=O)/C(=C/c2ccc(Cl)cc2)N=C1c1ccccc1)S3 (centres undefined)
- TGI (EKVX NSCLC): > 100 µM
- TGI (NCI-H460 lung): > 100 µM
- TGI (DU-145 prostate): > 100 µM
- TGI (SK-MEL-5 melanoma): > 100 µM
- TGI (LOX IMVI melanoma): > 100 µM
- TGI (NCI-H226 lung): > 100 µM
- TGI (KM12 colon): > 100 µM
- TGI (HL-60(TB) leukemia): 2.47 µM
- TGI (SK-OV-3 ovarian): > 100 µM
- TGI (ACHN renal): > 100 µM
- TGI (IGROV1 ovarian): > 100 µM
- TGI (UACC-257 melanoma): > 100 µM
- TGI (786-0 renal): > 100 µM
- TGI (HT29 colon): > 100 µM
- TGI (SK-MEL-28 melanoma): > 100 µM
- TGI (OVCAR-4 ovarian): > 100 µM
- TGI (NCI/ADR-RES ovarian): > 100 µM
- TGI (T-47D breast): > 100 µM
- TGI (HCC-2998 colon): > 100 µM
- TGI (HCT-116 colon): > 100 µM
- TGI (SF-539 CNS): > 100 µM
- TGI (K-562 leukemia): > 100 µM
- TGI (OVCAR-3 ovarian): > 100 µM
- TGI (NCI-H522 lung): 63.3 µM
- TGI (MCF7 breast): > 100 µM
- TGI (MOLT-4 leukemia): > 100 µM
- TGI (HOP-62 NSCLC): > 100 µM
- TGI (HCT-15 colon): > 100 µM
- TGI (RXF 393 renal): > 100 µM
- TGI (OVCAR-8 ovarian): > 100 µM
- TGI (CAKI-1 renal): > 100 µM
- TGI (MDA-N): > 100 µM
- TGI (NCI-H23 lung): > 100 µM
- TGI (RPMI-8226 leukemia): > 100 µM
- TGI (SK-MEL-2 melanoma): > 100 µM
- TGI (U251 CNS): > 100 µM
- TGI (SR leukemia): 74.1 µM
- TGI (UO-31 renal): > 100 µM
- TGI (PC-3 prostate): > 100 µM
- TGI (A498 renal): > 100 µM
- TGI (M14 melanoma): > 100 µM
- TGI (MDA-MB-435): > 100 µM
- TGI (MDA-MB-231 breast): > 100 µM
- TGI (HOP-92 NSCLC): > 100 µM
- TGI (CCRF-CEM leukemia): > 100 µM
- TGI (TK-10 renal): > 100 µM
- TGI (SF-268 CNS): > 100 µM
- TGI (SW-620 colon): > 100 µM
- TGI (OVCAR-5 ovarian): > 100 µM
- TGI (SF-295 CNS): > 100 µM
- TGI (HS 578T breast): > 100 µM

Structure (SMILES): C=CCOC(=O)CCCCCCCCCCCCCCCOC(=O)c1c(CCC[C@@H](C)O[Si](C)(C)C(C)(C)C)nc(=O)n2c1CC[C@H]2CC1(CC/C=C\[C@H](CC)O[Si](C(C)C)(C(C)C)C(C)C)OCCO1
- TGI (EKVX NSCLC): > 100 µM
- TGI (NCI-H460 lung): > 100 µM
- TGI (DU-145 prostate): > 100 µM
- TGI (MALME-3M melanoma): > 100 µM
- TGI (SK-MEL-5 melanoma): 46.8 µM
- TGI (SNB-19 CNS): > 100 µM
- TGI (COLO 205 colon): > 100 µM
- TGI (NCI-H226 lung): > 100 µM
- TGI (KM12 colon): > 100 µM
- TGI (SK-OV-3 ovarian): > 100 µM
- TGI (ACHN renal): > 100 µM
- TGI (UACC-257 melanoma): > 100 µM
- TGI (786-0 renal): 77.2 µM
- TGI (BT-549 breast): > 100 µM
- TGI (SK-MEL-28 melanoma): > 100 µM
- TGI (OVCAR-4 ovarian): > 100 µM
- TGI (NCI/ADR-RES ovarian): > 100 µM
- TGI (T-47D breast): > 100 µM
- TGI (HCC-2998 colon): > 100 µM
- TGI (HCT-116 colon): > 100 µM
- TGI (SF-539 CNS): > 100 µM
- TGI (UACC-62 melanoma): > 100 µM
- TGI (OVCAR-3 ovarian): > 100 µM
- TGI (NCI-H522 lung): > 100 µM
- TGI (MCF7 breast): > 100 µM
- TGI (HOP-62 NSCLC): > 100 µM
- TGI (HCT-15 colon): > 100 µM
- TGI (SN12C renal): > 100 µM
- TGI (CAKI-1 renal): > 100 µM
- TGI (MDA-N): > 100 µM
- TGI (NCI-H23 lung): > 100 µM
- TGI (RPMI-8226 leukemia): > 100 µM
- TGI (SK-MEL-2 melanoma): > 100 µM
- TGI (U251 CNS): 31.8 µM
- TGI (UO-31 renal): 61.3 µM
- TGI (PC-3 prostate): > 100 µM
- TGI (A549 NSCLC): > 100 µM
- TGI (A498 renal): > 100 µM
- TGI (M14 melanoma): > 100 µM
- TGI (MDA-MB-435): > 100 µM
- TGI (MDA-MB-231 breast): 54.3 µM
- TGI (HOP-92 NSCLC): 41.9 µM
- TGI (CCRF-CEM leukemia): > 100 µM
- TGI (TK-10 renal): > 100 µM
- TGI (SF-268 CNS): > 100 µM
- TGI (OVCAR-5 ovarian): > 100 µM
- TGI (SNB-75 CNS): > 100 µM
- TGI (SF-295 CNS): > 100 µM
